From US6399654B1, “Biflavanoids and derivatives thereof as antiviral agents” (priority 1995, dated 2002)
In brackets after ≈: the same amount, converted by molar mass. Several values for one entry are separate records, joined by “and”; a condition that tells them apart may be missing. Identical values can stand only once. Like-named read-outs stand apart in the source and are kept apart here. Marks after values point to notes of the source that are not given here.

What was measured:
[1] = system: 2.2.15 cells; assay: HBV cytotoxicity assay, neutral red dye uptake in 2.2.15 cells; assay type: cell-based; conditions: Homo sapiens, read-out: IC50 (toxicity, neutral red dye uptake)
Description: The toxicity of the test compounds in cultures of 2.2.15 cells, grown to confluence in 96-well flat-bottomed tissue culture plates and treated with compounds as described above, were assayed at four concentrations each in triplicate cultures, in 3 to 10-fold steps. Untreated control cultures were maintained on each plate. On each plate, wells containing no cells were used to correct for light scattering.
Stock solutions of text drugs were prepared in DMSO.

[2] = system: Adenovirus Type 5; assay: microbe, parasite or virus in culture; assay type: cell-based; conditions: Human mastadenovirus C, A549, read-out: CPE Inhibition EC50
[3] = system: Parainfluenza Type 3 Virus; assay: organism not typed; assay type: cell-based; conditions: MA104; Parainfluenza Type 3 Virus; read-out: CPI Inhibition EC50
[4] = system: Parainfluenza Type 3 Virus; assay: organism not typed; assay type: cell-based; conditions: MA104, read-out: Neutral Red EC50
[5] = biological target: T1, HIV-1 RT (Human immunodeficiency virus type 1 group M subtype B, UniProt P03366); assay: Anti-HIV-1 RT assay (recombinant enzyme); assay type: biochemical
T1 construct: made in house; host or cells: Escherichia coli

[6] = system: HIV-1 (strain LAV-1); assay: microbe, parasite or virus in culture; assay type: cell-based
[7] = system: Influenza A (A/NWS/33 (H1N1)); assay: Influenza A virus infection in mice; assay type: in vivo, BALB/c mice
Description: Animals: Female 13-15 g specific pathogen-free BALB/c mice were obtained form Simonsen Laboratories (Gilroy, Calif.). They were quarantined 24 h prior to use, and maintained on Wayne Lab Blox and tap water. After being infected, their drinking water contained 0.006% oxytetracycline (Pfizer, New York, N.Y.) to control possible secondary bacterial infections.
Virus: A/NWS/33 (H1N1) was obtained from K. W. Cochran, Univ. of Michigan (Ann Arbor, Mich.). A virus pool was prepared in MDCK cells; this was titrated in mice, ampuled, and stored at −80° C. until used.
Compounds: Robustaflavone was stored at room temperature until used. Ribavirin, used as a positive control, was obtained from ICN Pharmaceuticals (Costa Mesa, Calif.). Vehicles considered included DMSO (Sigma Chemical Co., St. Louis, Mo.), DMF (Sigma), PEG M. W. 200 (Aldrich Chemical Co. Milwaukee, Wis.), 0.4% CMC (Sigma) and 1-methyl-2-pyrrolidinone (MPD, Aldrich).
Arterial Oxygen Saturation (SaO2) Determinations: SaO2 was determined using the Ohmeda Blox 3740 pulse oximeter (Ohmeda, Louisville, Ohio)). The ear probe attachment was used, the probe placed on the thigh of the animal, with the slow instrument mode selected. Readings were made after a 30 second stabilization time on each animal. Use of this device for measuring effects of influenza virus on arterial oxygen saturation have been described.^72
Lung Virus Determinations: Each mouse lung was homogenized and varying dilutions assayed in triplicate for infectious virus in MDCK cells as described previously.^73
4. Effect of robustaflavone in CMC or in DMSO on influenza virus infection in mice. In the study with CMC, robustaflavone was used in dosages of 200 and 100 mg/kg/day; using DMSO vehicle, the dosages were 75 and 37.5 mg/kg/day, with the compound administered i.p. twice daily for 5 days beginning 4 h pre-virus exposure. The mice were used in each dose to monitor effects on SaO2 and death; from an additional group of similarly infected and treated mice, 3 animals were killed on days 3, 5, 7 and 9 to assay for lung score (0=normal, 4=maximal consolidation), weight, and virus titer. Three to four mice were used as toxicity controls, which were weighed prior to treatment and again 18 h after treatment termination, and deaths noted daily. […] Three sets of virus controls were used: Infected-untreated, infected-treated with CMC only, and infected-treated with DMSO only. Twenty animals were used in each of these control groups to monitor SaO2 and death, with 3 additional mice taken in parallel with treated animals to determine effects on lung consolidation and virus titer. Two sets of normal controls were used; one group of three mice was weighed and held in parallel with the toxicity controls. From the second group three mice were killed on days 3 and 9 for comparison of lung score and weight.
Statistical Evaluation: Increase in survivor number was evaluated using chi square analysis with Yates' correction. Mean survival time increases, virus titer and SaO2 value differences were analyzed by t-test. Lung consolidation scores were evaluated by ranked sum analysis.

[8] = in vitro; conditions: dog
[9] = system: HSV-2; assay: HSV-2 CPE inhibition in HFF cells; conditions: for HSV-2 SI (CC50/EC50): HFF Cells
[10] = Cytotoxicity by neutral red dye uptake, MA-104 cells; conditions: African green monkey, Neutral Red IC50 (cytotoxic)
[11] = Cytotoxicity (CC50) in HFF cells in the herpes virus tests; conditions: human
[12] = system: HFF Cells; assay: as above; conditions: HFF Cells; for HSV-2 CPE Inhibition CC50: HSV-2 test
[13] = robustaflavone in 0.4% CMC, 200 mg/kg/day i.p. bid × 5
[14] = robustaflavone in 0.4% CMC, 1005 mg/kg/day (so in the source) i.p. bid × 5
[15] = robustaflavone in DMSO, 37.5 mg/kg/day i.p. bid × 5
[16] = robustaflavone in DMSO, 75 mg/kg/day i.p. bid × 5

O=c1cc(-c2ccc(O)c(-c3c(O)cc4oc(-c5ccc(O)cc5)cc(=O)c4c3O)c2)oc2cc(O)cc(O)c12 [Robustaflavone (3), robustaflavone]
IC50 [1]: 337 µM
EC50 [2]: > 100 µg/mL
EC50 [3]: > 100 µg/mL
EC50 [4]: 39 µg/mL (≈ 72.4 µM)
IC50 ([5]; Anti-HIV-1 RT IC50, values in parentheses or in words): 65 µM
IC50 ([5]; HIV-1 RT IC50 (50% inhibition dose)): 62.6 µM and 65.4 µM
inhibition at 200 µg/mL ([5]; read-out: Anti-HIV-1 RT % Inhibition at 200 μg/ml): 91.4%
anti-HIV-1 activity in PBM cells (in words) [6]: inactive
EC50 ([6]; Human immunodeficiency virus 1, PBMC, human PBM cells infected with HIV-1 (strain LAV), read-out: Ant-HIV-1 in PBM cells EC50): > 100 µM
Selective Index (SI) ([6]; PBM cells): <1
Infected, Treated MST [7, 13]: 11.1 days
Infected, Treated Mean SaO2 [7, 13]: 84.6%
Infected, Treated Surv/Total [7, 13]: 0/9
Infected, Treated MST [7, 14]: 9.8 days
Infected, Treated Mean SaO2 [7, 14]: 85.1** %
Infected, Treated Surv/Total [7, 14]: 0/10
Infected, Treated MST [7, 15]: 8.0 days
Infected, Treated Mean SaO2 [7, 15]: 73.8%
Infected, Treated Surv/Total [7, 15]: 0/10
Infected, Treated MST (mean survival time) [7, 16]: 3.2 days
Infected, Treated Mean SaO2 (mean of days 3-10) [7, 16]: 70.6%
Infected, Treated Surv/Total ([7]; robustaflavone in DMSO, 75 mg/kg/day i.p. bid × 5 beg −4 h pre-virus): 0/9
IC50 ([8]; CPE Inhibition IC50 (50% cell inhibitory (cytotoxic) concentration), Influenza A (H1N1) test): 18 µg/mL (≈ 33.4 µM)
IC50 ([8]; CPE Inhibition IC50 (cytotoxic), Influenza A (H3N2) test): 32 µg/mL (≈ 59.4 µM)
IC50 ([8]; CPE Inhibition IC50 (cytotoxic), Influenza B test): ~100 µg/mL (≈ 186 µM)
HSV-2 SI (CC50/EC50) ([9]; listed as Robustaflavone(3)): >11.8
HSV-2 SI (CC50/EC50) ([9]; listed as robustaflavone (3)): > 11.8
EC50 ([9]; Human alphaherpesvirus 2, HFF, read-out: HSV-2 CPE Inhibition EC50): 8.5 µg/mL (≈ 15.8 µM)
IC50 ([10]; Parainfluenza Type 3 Virus test): 79 µg/mL (≈ 147 µM)
IC50 ([10]; Respiratory Syncytial Virus test): ~100 µg/mL (≈ 186 µM)
CC50 at 3 days [11]: > 100 µg/mL
CC50 at 14 days [11]: > 100 µg/mL
HSV-1 CPE Inhibition CC50 ([12]; HSV-1 test): >100 µg/mL
HSV-2 CPE Inhibition CC50 ([12]; listed as Robustaflavone(3)): >100 µg/mL
HSV-2 CPE Inhibition CC50 ([12]; listed as robustaflavone (3)): > 100 µg/mL
